Data as given in patent US10131652B2, “Pyrimidinyloxy benzene derivatives as herbicides” (E. I. DU PONT DE NEMOURS AND COMPANY, priority 2014, dated 2018).

Tests used:
Format in all cases: in vivo
[1] = tested on: Italian ryegrass (Lolium multiflorum); test: Test B pre-/postemergence plant response
Summary of the method: (§1)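 Visual injury rating, 0 (no effect) to 100 (complete control), vs untreated controls after ~10 d greenhouse. Pre: directed soil spray after planting in loam/sand. Post: plants 2–10 cm, 1–2 leaf stage. Compound in non-phytotoxic solvent plus surfactant.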

[2] = tested on: kochia (Kochia scoparia); test: Test B pre-/postemergence plant response
Summary of the method: as §1

[3] = tested on: ragweed (common ragweed, Ambrosia elatior); test: Test B pre-/postemergence plant response
Summary of the method: as §1

[4] = tested on: barnyardgrass (Echinochloa crus-galli); test: Test C flooded paddy test plant response; settings: Flood, 250 g ai/ha; scale of 0 to 100 where 0 is no effect and 100 is complete control; 13 to 15 days
Summary of the method: (§2)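 Scale 0 (no effect) to 100 (complete control), assigned visually versus controls after 13–15 d greenhouse. Application: directly to paddy water, 3 cm flood depth kept constant, 2-leaf stage.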

[5] = tested on: ducksalad (Heteranthera limosa); test: Test C flooded paddy test plant response; settings: Flood, 250 g ai/ha; scale of 0 to 100 where 0 is no effect and 100 is complete control; 13 to 15 days
Summary of the method: as §2

[6] = tested on: rice (Oryza sativa); test: Test C flooded paddy test plant response; settings: Flood, 250 g ai/ha; scale of 0 to 100 where 0 is no effect and 100 is complete control; 13 to 15 days
Summary of the method: as §2

[7] = tested on: small-flower umbrella sedge (Cyperus difformis); test: Test C flooded paddy test plant response; settings: Flood, 250 g ai/ha; scale of 0 to 100 where 0 is no effect and 100 is complete control; 13 to 15 days
Summary of the method: as §2

[8] = tested on: barnyardgrass (Echinochloa crus-galli); test: Test D pre-/postemergence plant response
Summary of the method: (§3)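 Sown seed (loam/sand soil) treated preemergence; emerged plants, 1- to 4-leaf stage and 2 to 18 cm, treated postemergence in peat/vermiculite medium. Greenhouse incubation 13–15 d. Endpoint: visual 0–100 rating versus untreated.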

[9] = tested on: blackgrass (Alopecurus myosuroides); test: Test D pre-/postemergence plant response
Summary of the method: as §3

[10] = tested on: giant foxtail (Setaria faberii); test: Test D pre-/postemergence plant response
Summary of the method: as §3

[11] = tested on: johnsongrass (Sorghum halepense); test: Test D pre-/postemergence plant response
Summary of the method: as §3

[12] = tested on: oilseed rape (Brassica napus); test: Test D pre-/postemergence plant response
Summary of the method: as §3

[13] = tested on: pigweed (Amaranthus retroflexus); test: Test D pre-/postemergence plant response
Summary of the method: as §3

[14] = tested on: velvetleaf (Abutilon theophrasti); test: Test D pre-/postemergence plant response
Summary of the method: as §3

[15] = 125 g ai/ha, postemergence, 0 to 100 scale, 0 no effect, 100 complete control
[16] = Postemergence, 500 g ai/ha, 0 to 100 scale (0 no effect, 100 complete control)
[17] = Preemergence, 125 g ai/ha, 0 to 100 scale where 0 is no effect and 100 is complete control
[18] = Preemergence, 500 g ai/ha, 0 to 100 scale where 0 is no effect and 100 is complete control
[19] = Postemergence, 16 g ai/ha, scale 0 to 100 (0 no effect, 100 complete control)
[20] = Postemergence, 31 g ai/ha, scale 0 to 100 (0 no effect, 100 complete control)
[21] = Postemergence, 62 g ai/ha, scale 0 to 100, 0 no effect, 100 complete control
[22] = Postemergence, 125 g ai/ha, scale 0 to 100, 0 no effect, 100 complete control
[23] = Preemergence, 16 g ai/ha, scale 0 to 100 (0 no effect, 100 complete control)
[24] = Preemergence, 31 g ai/ha, scale 0 to 100 (0 no effect, 100 complete control)
[25] = Preemergence, 62 g ai/ha, scale 0 to 100 (0 no effect, 100 complete control)
[26] = 31 g ai/ha, Postemergence, 0 to 100 scale, 0 no effect, 100 complete control
[27] = Preemergence, 31 g ai/ha, 0 to 100 scale (0 no effect, 100 complete control)

Cc1cc(-c2ccccc2Oc2ncc(Cl)cn2)no1 [Compound 60]
Plant response rating, Ryegrass, Italian [1, 15]: 0
Plant response rating, Ryegrass, Italian [1, 16]: 80
Plant response rating, Ryegrass, Italian [1, 17]: 0
Plant response rating, Ryegrass, Italian [1, 18]: 30
Plant response rating, Kochia [2, 15]: 90
Plant response rating, Kochia [2, 16]: 100
Plant response rating, Kochia [2, 17]: 90
Plant response rating, Kochia [2, 18]: 100
Plant response rating, Ragweed [3, 15]: 60
Plant response rating, Ragweed [3, 16]: 90
Plant response rating, Ragweed [3, 17]: 20
Plant response rating, Ragweed [3, 18]: 50
Barnyardgrass plant response rating [4]: 20
Ducksalad plant response rating [5]: 80
Rice plant response rating [6]: 30
Sedge, Umbrella plant response rating [7]: 50
Barnyardgrass plant response rating [8, 19]: 0
Barnyardgrass plant response rating [8, 20]: 0
Plant response rating, Barnyardgrass [8, 21]: 10
Plant response rating, Barnyardgrass [8, 22]: 10
Plant response rating (scale 0 to 100), Barnyardgrass ([8]; Preemergence, 62 g ai/ha): 30
Plant response rating (scale 0 to 100), Barnyardgrass ([8]; Preemergence, 125 g ai/ha): 75
Plant response rating, Barnyardgrass [8, 23]: 0
Plant response rating, Barnyardgrass [8, 24]: 5
Blackgrass plant response rating [9, 19]: 0
Blackgrass plant response rating [9, 20]: 0
Plant response rating, Blackgrass [9, 21]: 5
Plant response rating, Blackgrass [9, 22]: 20
Plant response rating (scale 0 to 100), Blackgrass ([9]; Preemergence, 125 g ai/ha): 70
Plant response rating, Blackgrass [9, 23]: 0
Plant response rating, Blackgrass [9, 24]: 5
Plant response rating, Blackgrass [9, 25]: 10
Foxtail, Giant plant response rating [10, 19]: 0
Foxtail, Giant plant response rating [10, 20]: 5
Plant response rating, Foxtail, Giant [10, 21]: 5
Plant response rating, Foxtail, Giant [10, 22]: 10
Plant response rating (scale 0 to 100), Foxtail, Giant ([10]; Preemergence, 125 g ai/ha): 95
Plant response rating, Foxtail, Giant [10, 23]: 0
Plant response rating, Foxtail, Giant [10, 24]: 5
Plant response rating, Foxtail, Giant [10, 25]: 40
Johnsongrass plant response rating [11, 19]: 0
Johnsongrass plant response rating [11, 20]: 0
Plant response rating, Johnsongrass [11, 21]: 0
Plant response rating, Johnsongrass [11, 22]: 5
Plant response rating (scale 0 to 100), Johnsongrass ([11]; Preemergence, 125 g ai/ha): 45
Plant response rating, Johnsongrass [11, 23]: 0
Plant response rating, Johnsongrass [11, 24]: 0
Plant response rating, Johnsongrass [11, 25]: 15
Oilseed Rape plant response rating [12, 19]: 60
Oilseed Rape plant response rating [12, 20]: 50
Plant response rating, Oilseed Rape [12, 21]: 65
Plant response rating, Oilseed Rape [12, 22]: 90
Plant response rating (scale 0 to 100), Oilseed Rape ([12]; Preemergence, 125 g ai/ha): 100
Plant response rating, Oilseed Rape [12, 23]: 80
Plant response rating, Oilseed Rape [12, 24]: 98
Plant response rating, Oilseed Rape [12, 25]: 90
Pigweed plant response rating [13, 19]: 20
Pigweed plant response rating [13, 20]: 35
Plant response rating, Pigweed [13, 21]: 55
Plant response rating, Pigweed [13, 22]: 70
Plant response rating (scale 0 to 100), Pigweed ([13]; Preemergence, 125 g ai/ha): 100
Plant response rating, Pigweed [13, 23]: 75
Plant response rating, Pigweed [13, 24]: 100
Plant response rating, Pigweed [13, 25]: 100
Velvetleaf plant response rating [14, 19]: 40
Velvetleaf plant response rating [14, 20]: 50
Plant response rating, Velvetleaf [14, 21]: 65
Plant response rating, Velvetleaf [14, 22]: 80
Plant response rating (scale 0 to 100), Velvetleaf ([14]; Preemergence, 125 g ai/ha): 100
Plant response rating, Velvetleaf [14, 23]: 60
Plant response rating, Velvetleaf [14, 24]: 100
Plant response rating, Velvetleaf [14, 25]: 100

Fc1ccc(Oc2ncc(Cl)cn2)c(-c2cc(C(F)F)on2)c1Cl [Compound 96]
Plant response rating, Ryegrass, Italian [1, 26]: 30
Plant response rating, Ryegrass, Italian [1, 15]: 60
Ryegrass, Italian plant response rating [1, 27]: 0
Plant response rating, Ryegrass, Italian [1, 17]: 0
Plant response rating, Kochia [2, 26]: 70
Plant response rating, Kochia [2, 15]: 100
Kochia plant response rating [2, 27]: 50
Plant response rating, Kochia [2, 17]: 70
Plant response rating, Ragweed [3, 26]: 50
Plant response rating, Ragweed [3, 15]: 60
Ragweed plant response rating [3, 27]: 0
Plant response rating, Ragweed [3, 17]: 0
Barnyardgrass plant response rating [4]: 15
Ducksalad plant response rating [5]: 90
Rice plant response rating [6]: 30
Sedge, Umbrella plant response rating [7]: 100
Barnyardgrass plant response rating [8, 19]: 0
Barnyardgrass plant response rating [8, 20]: 0
Plant response rating, Barnyardgrass [8, 21]: 5
Plant response rating, Barnyardgrass [8, 22]: 5
Blackgrass plant response rating [9, 19]: 0
Blackgrass plant response rating [9, 20]: 10
Plant response rating, Blackgrass [9, 21]: 10
Plant response rating, Blackgrass [9, 22]: 20
Foxtail, Giant plant response rating [10, 19]: 0
Foxtail, Giant plant response rating [10, 20]: 5
Plant response rating, Foxtail, Giant [10, 21]: 10
Plant response rating, Foxtail, Giant [10, 22]: 10
Johnsongrass plant response rating [11, 19]: 0
Johnsongrass plant response rating [11, 20]: 0
Plant response rating, Johnsongrass [11, 21]: 5
Plant response rating, Johnsongrass [11, 22]: 10
Oilseed Rape plant response rating [12, 19]: 40
Oilseed Rape plant response rating [12, 20]: 45
Plant response rating, Oilseed Rape [12, 21]: 65
Plant response rating, Oilseed Rape [12, 22]: 65
Pigweed plant response rating [13, 19]: 98
Pigweed plant response rating [13, 20]: 95
Plant response rating, Pigweed [13, 21]: 98
Plant response rating, Pigweed [13, 22]: 98
Velvetleaf plant response rating [14, 19]: 20
Velvetleaf plant response rating [14, 20]: 35
Plant response rating, Velvetleaf [14, 21]: 35
Plant response rating, Velvetleaf [14, 22]: 35

COc1cccc(Oc2ncc(Cl)cn2)c1-c1cc(C(F)(F)F)no1 [Compound 104]
Plant response rating, Ryegrass, Italian [1, 26]: 0
Plant response rating, Ryegrass, Italian [1, 15]: 30
Ryegrass, Italian plant response rating [1, 27]: 0
Plant response rating, Ryegrass, Italian [1, 17]: 10
Plant response rating, Kochia [2, 26]: 50
Plant response rating, Kochia [2, 15]: 80
Kochia plant response rating [2, 27]: 0
Plant response rating, Kochia [2, 17]: 10
Plant response rating, Ragweed [3, 26]: 10
Plant response rating, Ragweed [3, 15]: 10
Ragweed plant response rating [3, 27]: 0
Plant response rating, Ragweed [3, 17]: 0
Barnyardgrass plant response rating [4]: 20
Ducksalad plant response rating [5]: 75
Rice plant response rating [6]: 0
Sedge, Umbrella plant response rating [7]: 80
Plant response rating (scale 0 to 100), Barnyardgrass ([8]; Preemergence, 62 g ai/ha): 25
Plant response rating (scale 0 to 100), Barnyardgrass ([8]; Preemergence, 125 g ai/ha): 70
Plant response rating, Barnyardgrass [8, 23]: 0
Plant response rating, Barnyardgrass [8, 24]: 10
Plant response rating (scale 0 to 100), Blackgrass ([9]; Preemergence, 125 g ai/ha): 30
Plant response rating, Blackgrass [9, 23]: 0
Plant response rating, Blackgrass [9, 24]: 0
Plant response rating, Blackgrass [9, 25]: 0
Plant response rating (scale 0 to 100), Foxtail, Giant ([10]; Preemergence, 125 g ai/ha): 100
Plant response rating, Foxtail, Giant [10, 23]: 30
Plant response rating, Foxtail, Giant [10, 24]: 80
Plant response rating, Foxtail, Giant [10, 25]: 90
Plant response rating (scale 0 to 100), Johnsongrass ([11]; Preemergence, 125 g ai/ha): 65
Plant response rating, Johnsongrass [11, 23]: 5
Plant response rating, Johnsongrass [11, 24]: 20
Plant response rating, Johnsongrass [11, 25]: 15
Plant response rating (scale 0 to 100), Oilseed Rape ([12]; Preemergence, 125 g ai/ha): 50
Plant response rating, Oilseed Rape [12, 23]: 0
Plant response rating, Oilseed Rape [12, 24]: 0
Plant response rating, Oilseed Rape [12, 25]: 30
Plant response rating (scale 0 to 100), Pigweed ([13]; Preemergence, 125 g ai/ha): 100
Plant response rating, Pigweed [13, 23]: 100
Plant response rating, Pigweed [13, 24]: 100
Plant response rating, Pigweed [13, 25]: 100
Plant response rating (scale 0 to 100), Velvetleaf ([14]; Preemergence, 125 g ai/ha): 65
Plant response rating, Velvetleaf [14, 23]: 25
Plant response rating, Velvetleaf [14, 24]: 50
Plant response rating, Velvetleaf [14, 25]: 70
